In article PMC11472310, “Distinctive Immune Signatures Driven by Structural Alterations in Desmuramylpeptide NOD2 Agonists” (Journal of Medicinal Chemistry, 2024):
Where two headings read alike, the source gives them in different places. Blank lines part the entries; values can stand above or below the compound they belong to.

Key:
[1] = target: T1, hNOD2 (Homo sapiens, UniProt Q9HC29); experiment: HEK-Blue NOD2 cell line reporter assay (NF-κB-inducible SEAP); type: cell-based; conditions: for EC50: HEK-Blue NOD2 cells, 18 h
T1 construct: host or cells: HEK-Blue NOD2 cells (HEK293)
Summary of the method: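 HEK293 cells cotransfected with hNOD2 and an NF-κB-inducible SEAP reporter, exposed to compounds dose-dependently for 18 h at 37 °C, 5% CO2. SEAP read by absorbance at 630 nm; EC50 values from dose-response, duplicate wells, at least two independent biological replicates.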

[2] = tested on: human PBMCs; experiment: Cytokine release from peripheral blood mononuclear cells (LEGENDplex panel); type: cell-based; conditions: 18 h
Excerpt: The immunomodulatory effects of the selected desmuramylpeptides were examined in human primary peripheral blood mononuclear cells (PBMCs). This diverse mixture of immune cells provided a platform to investigate the effects of these NOD2 agonists within a physiologically relevant environment, encompassing other NOD2-interacting and downstream signaling proteins. […] Given that NOD2 activation often modulates the Toll-like receptor (TLR)-induced cytokine responses, we investigated the impact of combining desmuramylpeptides with lipopolysaccharide (LPS), a well-known TLR4 agonist, on cytokine secretion.[76]−[78]
The elicited cytokine profiles thus broadly reflect the structure–activity relationships obtained in the reporter gene assays.
Peripheral blood mononuclear cells were plated at a density of 1 × 10^6 cells/mL in 48-well plates containing 500 μL of growth medium. Cells were then treated with the compounds (2 μM) or the corresponding vehicle (0.1% DMSO), both in the absence and presence of LPS (10 ng/mL). Following an 18 h incubation period at 37 °C with 5% CO2, cell-free supernatants were collected and stored at −80 °C until analysis. […] Standard curves were constructed using recombinant cytokines provided in the kit. Data analysis was performed using Biolegend software Qognit and Prism (GraphPad, San Diego, CA, USA) software. The experiments were independently replicated four times. Statistical significance was determined using two-way analysis of variance (ANOVA) followed by Tukey’s multiple comparisons test.

[3] = tested on: PBMCs; experiment: Direct cytotoxic effect of compounds on PBMCs (Sytox blue); type: cell-based; conditions: Table S2; for Percent of dead PBMCs, + LPS: 10 μM + LPS 1 μg/mL; for Percent of dead PBMCs: alone: compounds 10 μM, LPS 1 μg/mL, IL-2 200 U/mL
Description: Additionally, PBMCs and cancer cells alone were treated with desmuramylpeptides to assess any direct cytotoxic effects on these cells.
The PBMC cytotoxicity assays utilizing K562 cells were conducted following previously established methods, with some adjustments.[82] […] Meanwhile, K562 cells were stained with CFSE (Invitrogen, Carlsbad, CA, USA), washed twice with complete medium, and then added (1 × 10^4 cells per well) to the pretreated PBMCs to achieve a final effector cell to target tumor cell ratio of 40:1. Following a 4-h coincubation period at 37 °C with 5% CO2, cells were stained with Sytox blue dead cell stain (Invitrogen) and analyzed using an Attune NxT flow cytometer (Thermo Fisher Scientific, Waltham, MA, USA) along with FlowJo software (Tree Star, Inc., Ashland, OR, USA). Cells positive for both CFSE and Sytox blue were designated as dead K562 cells. PBMCs alone and CFSE-labeled cancer cells alone were also exposed to the compounds at equivalent concentrations and stained with Sytox blue to assess any direct cytotoxic effects of the compounds on PBMCs and cancer cells separately. Each experiment was conducted in duplicate and repeated in three independent biological replicates. Statistical analysis was performed using one-way ANOVA followed by Dunnett’s multiple comparisons test.

[4] = tested on: CD8+ T cells cocultured with BMDCs; experiment: BMDC antigen cross-presentation to ovalbumin-specific CD8+ T cells (OT I); type: cell-based, C57BL/6 mouse; conditions: BMDCs pretreated 10 μM + ovalbumin 50 μg/mL 18 h, coculture 72 h; OVA-treated cells 23.3%
Description: For this study, we narrowed down the selection of suitable desmuramylpeptides even further. In order to assess the adjuvant potential of selected desmuramylpeptides with regard to their effect on DC-mediated activation of CD4^+ and CD8^+ T cells, we conducted an ex vivo antigen-presentation assay utilizing C57BL/6 mouse bone marrow-derived DCs (BMDCs). Upon stimulation with desmuramylpeptides at 10 μM, in conjunction with ovalbumin soluble protein (50 μg/mL), BMDCs were cocultured with carboxyfluorescein succinimidyl ester (CFSE)-labeled naïve ovalbumin-specific CD4^+ or CD8^+ T cells, which were isolated from splenocytes of OT II and OT I transgenic mice, respectively. […] Additionally, we investigated how the priming of T cells elicited by the tested compounds impacted the cytokine profiles secreted in BMDC/T-cell cocultures.
CD4^+ and CD8^+ T cells were isolated from splenocytes of OT II and OT I transgenic mice using CD4^+ and CD8^+ T cell isolation kits (Miltenyi Biotec, Germany) following the manufacturer’s instructions. The purified T cells were labeled with CFSE (Invitrogen, Carlsbad, CA, USA) and subsequently washed. Next, 5 × 10^4 T cells were combined with 1 × 10^4 BMDCs/well (pretreated with desmuramylpeptides at 10 μM and 50 μg/mL ovalbumin [Invivogen, San Diego, CA, USA] for 18 h and then washed). Following a 72-h incubation period at 37 °C with 5% CO2, supernatants were harvested and stored at −80 °C for cytokine analysis. The cells were then stained with Fixable viability dye eFluor 780 (eBioscience, Thermo Fisher Scientific, MA, USA), anti-Thy1.2-PE-Cy7 antibodies (Biolegend, San Diego, CA, USA), anti-CD8-eFluor450 antibodies (eBioscience), anti-CD4-eFluor450 antibodies (eBioscience), and anti-CD25-APC antibodies (Biolegend) before analysis using a Beckman Coulter Cytoflex S flow cytometer (CA, USA) and FlowJo software (Tree Star, Inc., Ashland, OR, USA). Live Thy1.2+/CD4+ and Thy1.2+/CD8+ cells were assessed for CFSE dilution and CD25 expression. […] Statistical significance was determined using paired t tests.

[5] = NF-κB transcriptional activity (SEAP), read-out: EC50 (nM), NOD2 agonistic activity

T1 sequence (Q9HC29 whole entry): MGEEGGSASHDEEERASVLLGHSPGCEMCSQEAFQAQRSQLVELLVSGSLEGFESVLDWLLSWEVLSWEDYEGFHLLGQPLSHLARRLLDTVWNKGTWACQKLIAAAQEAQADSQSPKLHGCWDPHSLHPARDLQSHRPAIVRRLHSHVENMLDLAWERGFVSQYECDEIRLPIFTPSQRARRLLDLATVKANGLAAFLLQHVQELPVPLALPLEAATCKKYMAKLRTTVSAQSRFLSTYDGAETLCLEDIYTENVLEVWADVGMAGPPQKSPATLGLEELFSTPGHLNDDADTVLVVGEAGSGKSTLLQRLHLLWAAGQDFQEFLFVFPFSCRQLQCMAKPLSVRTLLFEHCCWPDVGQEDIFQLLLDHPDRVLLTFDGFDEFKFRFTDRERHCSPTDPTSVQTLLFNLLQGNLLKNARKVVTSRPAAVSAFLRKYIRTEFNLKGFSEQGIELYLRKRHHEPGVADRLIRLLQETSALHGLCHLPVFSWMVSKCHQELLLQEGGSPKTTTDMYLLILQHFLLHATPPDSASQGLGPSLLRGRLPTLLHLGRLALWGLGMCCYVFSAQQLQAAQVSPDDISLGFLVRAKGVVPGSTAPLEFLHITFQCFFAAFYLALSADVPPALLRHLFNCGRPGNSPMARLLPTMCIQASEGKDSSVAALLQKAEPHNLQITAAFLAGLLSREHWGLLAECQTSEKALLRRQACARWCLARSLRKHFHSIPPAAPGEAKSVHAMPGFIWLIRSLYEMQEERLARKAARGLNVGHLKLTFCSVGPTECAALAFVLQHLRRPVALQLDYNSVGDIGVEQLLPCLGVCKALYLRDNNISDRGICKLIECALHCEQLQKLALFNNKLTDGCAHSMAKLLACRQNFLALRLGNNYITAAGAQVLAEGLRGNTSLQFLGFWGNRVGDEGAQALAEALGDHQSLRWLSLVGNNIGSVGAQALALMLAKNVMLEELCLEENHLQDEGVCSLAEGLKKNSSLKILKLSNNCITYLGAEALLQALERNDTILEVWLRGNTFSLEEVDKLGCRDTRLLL

- enhancement in potency compared to 1 ([1]; EC50 ratio versus unsubstituted counterpart 1): ~17 fold
- EC50 [1, 5]: 4.6 ± 1.6 nM
SMILES: CCCC(=O)Oc1ccc(/C=C/C(=O)NCC(=O)N[C@H](C(=O)N[C@H](CCC(=O)OCC)C(=O)OCC)C(C)C)cc1OC [Compound 3, Diethyl ((E)-3-(4-(Butyryloxy)-3-methoxyphenyl)acryloyl)glycyl-L-valyl-D-glutamate]
- levels of LPS-induced IL-10 ([2]; 2 μM + LPS 10 ng/mL): amplified
- production of MCP-1 and IFN-γ compared to the MDP/LPS combination ([2]; 2 μM + LPS 10 ng/mL): significantly diminished production
- secretion of IL-1β, IL-10 and TGFβ compared to the MDP/LPS combination ([2]; 2 μM + LPS 10 ng/mL): increased secretion
- Percent of dead PBMCs, + LPS [3]: 3.34% ± 0.35%
- Percent of dead PBMCs [3]: 1.14% ± 0.23%
- fraction of activated and proliferating CD8+ T-cells (CD25+, CFSE low) [4]: 29.3%

- EC50 [1, 5]: 105 ± 22.8 nM
SMILES: CC/C=C\C/C=C\C/C=C\C/C=C\C/C=C\CCCC(=O)Oc1ccc(/C=C/C(=O)NCC(=O)N[C@H](C(=O)N[C@H](CCC(=O)OCC)C(=O)OCC)C(C)C)cc1OC [Compound 23, Diethyl ((E)-3-(4-(((5Z,8Z,11Z,14Z,17Z)-Icosa-5,8,11,14,17-pentaenoyl)oxy)-3-methoxyphenyl)acryloyl)glycyl-L-valyl-D-glutamate]
- levels of LPS-induced IL-10 ([2]; 2 μM + LPS 10 ng/mL): amplified
- production of MCP-1 and IFN-γ compared to the MDP/LPS combination ([2]; 2 μM + LPS 10 ng/mL): significantly diminished production
- secretion of IL-1β, IL-10 and TGFβ compared to the MDP/LPS combination ([2]; 2 μM + LPS 10 ng/mL): increased secretion
- Percent of dead PBMCs, + LPS [3]: 11.4% ± 2.64%
- Percent of dead PBMCs [3]: 1.28% ± 0.06%
- fraction of activated and proliferating CD8+ T-cells (CD25+, CFSE low) [4]: 34.1%

SMILES: CCOC(=O)CC[C@@H](NC(=O)[C@@H](NC(=O)CNC(=O)/C=C/c1ccc(OC(=O)CO[C@H]2CC[C@@]3(C)C(=CC[C@H]4[C@@H]5CC[C@H]([C@H](C)CCCC(C)C)[C@@]5(C)CC[C@@H]43)C2)c(OC)c1)C(C)C)C(=O)OCC [Compound 26, Diethyl ((E)-3-(4-(2-(((8S,9S,10R,13R,14S,17R)-10,13-Dimethyl-17-((R)-6-methylheptan-2-yl)-2,3,4,7,8,9,10,11,12,13,14,15,16,17-tetradecahydro-1H-cyclopenta[a]phenanthren-3-yl)oxy)acetoxy)-3-methoxyphenyl)acryloyl)glycyl-L-valyl-D-glutamate]
- EC50 [1, 5]: 12200 nM
- EC50 ([1]; read-out: EC50, NOD2 agonistic activity (text)): 12200 nM
- levels of LPS-induced IL-10 ([2]; 2 μM + LPS 10 ng/mL): amplified
- production of IL-12p70 and TNF-α compared to MDP ([2]; 2 μM + LPS 10 ng/mL): higher production
- capacity to induce IP-10 and IFN-γ secretion ([2]; 2 μM + LPS 10 ng/mL, versus MDP): comparable to MDP
- production of proinflammatory cytokines and chemokines including IL-6, IL-8 and MCP-1 ([2]; 2 μM alone (no LPS)): smaller increases
- Percent of dead PBMCs, + LPS [3]: 9.93% ± 0.49%
- Percent of dead PBMCs [3]: 1.08% ± 0.10%
